Source: publication PMC4877593, “Design and Synthesis of Potent in Vitro and in Vivo Anticancer Agents Based on 1-(3′,4′,5′-Trimethoxyphenyl)-2-Aryl-1H-Imidazole” (Scientific Reports, 2016)
Like-named read-outs stand apart in the source and are kept apart here.

Columns and labels:
HT-29 = test: In vitro antiproliferative activity (MTT), HT-29; format: cell-based; details: Homo sapiens, tumor cell proliferation, 72 h, mean ± SE
Procedure: (§1) Human T-cell leukemia (CCRF-CEM and Jurkat) and human B-cell leukemia (SEM) cells were grown in RPMI-1640 medium (Gibco, Milano, Italy). Breast adenocarcinoma (MCF7), human cervix carcinoma (HeLa), and human colon adenocarcinoma (HT-29) cells were grown in DMEM medium (Gibco, Milano, Italy), all supplemented with 115 units/mL penicillin G (Gibco, Milano, Italy), 115 μg/mL streptomycin (Invitrogen, Milano, Italy), and 10% fetal bovine serum (Invitrogen, Milano, Italy). Stock solutions (10 mM) of the different compounds were obtained by dissolving them in dimethyl sulfoxide (DMSO). Individual wells of a 96-well tissue culture microtiter plate were inoculated with 100 μL of complete medium containing 8 × 10^3 cells. The plates were incubated at 37 °C in a humidified 5% CO2 incubator for 18 h prior to the experiments. After medium removal, 100 μL of fresh medium containing the test compound at different concentrations was added to each well in triplicate and incubated at 37 °C for 72 h. The percentage of DMSO in the medium never exceeded 0.25%. This was also the maximum DMSO concentration in all cell-based assays described below. […] Different concentrations of the test compounds were added, and viability was determined 72 h later by the MTT test. For cytotoxicity evaluations in resting PBL cultures, non-adherent cells were resuspended (5 × 10^5 cells/mL) and treated for 72 h with the test compounds, as described above.

A549 = test: In vitro antiproliferative activity (MTT), A549; format: cell-based; details: Homo sapiens, tumor cell proliferation, 72 h, mean ± SE
Procedure: as §1

RS4;11 = test: In vitro antiproliferative activity (MTT), RS4;11; format: cell-based; details: Homo sapiens, tumor cell proliferation, 72 h, mean ± SE
Jurkat = test: In vitro antiproliferative activity (MTT), Jurkat; format: cell-based; details: Homo sapiens, tumor cell proliferation, 72 h, mean ± SE
Procedure: as §1

HL-60 = test: In vitro antiproliferative activity (MTT), HL-60; format: cell-based; details: Homo sapiens, tumor cell proliferation, 72 h, mean ± SE
HeLa = test: In vitro antiproliferative activity (MTT), HeLa; format: cell-based; details: Homo sapiens, tumor cell proliferation, 72 h, mean ± SE
Procedure: as §1

MCF-7 = test: In vitro antiproliferative activity (MTT), MCF-7; format: cell-based; details: Homo sapiens, MCF7, tumor cell proliferation, 72 h, mean ± SE
Procedure: as §1

bovine brain tubulin = test: Inhibition of tubulin polymerization (turbidimetry); format: biochemical
Procedure: To evaluate the effect of the compounds on tubulin assembly in vitro[22], varying concentrations of compounds were preincubated with 10 μM bovine brain tubulin in glutamate buffer at 30 °C and then cooled to 0 °C. After addition of 0.4 mM GTP (final concentration), the mixtures were transferred to 0 °C cuvettes in a recording spectrophotometer equipped with an electronic temperature controller and warmed to 30 °C. Tubulin assembly was followed turbidimetrically at 350 nm. […] The ability of the test compounds to inhibit colchicine binding to tubulin was measured as described, except that the reaction mixtures contained 1 μM tubulin, 5 μM [^3H]colchicine and 1 or 5 μM test compound.

[1] = system: panel of seven human tumor cell lines; test: Antiproliferative activity across the panel of seven human tumor cell lines; format: cell-based
Procedure: as §1

[2] = system: HCT-15 (human colon adenocarcinoma); details: cited from earlier work
[3] = system: NCI-H460 (human lung large cell carcinoma); details: cited from earlier work
tubulin = details: read-out: IC50 inhibitor of tubulin polymerization; cited from earlier work
[4] = system: panel of seven human tumor cell lines; details: previously published triazole; ref 16d; read-out: IC50 values in the same seven cell lines (range); cited from earlier work
[5] = tubulin at 10 μM, 20 min incubation, read-out: Tubulin assembly IC50 ± S.D.
[6] = average over the seven cell lines, read-out: average IC50 values
[7] = range over seven cancer cell lines, read-out: IC50 values in the seven cell lines (range)
[8] = repeated beside the calculated energies, read-out: inhibition of tubulin polymerization IC50 (Table 4)

Compound | IC50 (HT-29) [nM] | melting point [°C] | IC50 (A549) [nM] | IC50 (RS4;11) [nM] | IC50 (Jurkat) [nM] | IC50 (HL-60) [nM] | IC50 (HeLa) [nM] | IC50 (MCF-7) [nM] | IC50 (bovine brain tubulin; [5]) [nM] | IC50 [1, 6] [nM] | IC50 [1, 7] [nM] | IC50 (bovine brain tubulin; [8]) [nM] | IC50 [2] [nM] | IC50 [3] [nM] | IC50 (tubulin) [nM] | IC50 [4] [nM]
COc1cc(-n2ccnc2-c2cc(C)c(OC)c(C)c2)cc(OC)c1OC [Compound 4h, 2-(4′-Methoxy-3′,5′-dimethylphenyl)-1-(3′,4′,5′-trimethoxyphenyl)-1H-imidazole] | > 10000 | 153 to 155 | > 10000 | > 10000 | > 10000 | 3470 ± 467 | 9160 ± 1590 | > 10000 | – | – | – | – | – | – | – | –
COc1ccc(-c2nccn2-c2cc(OC)c(OC)c(OC)c2)cc1C [Compound 4f, 2-(4′-Methoxy-3′-methylphenyl)-1-(3′,4′,5′-trimethoxyphenyl)-1H-imidazole] | 377 ± 33 | 128 to 130 | 4720 ± 509 | 475 ± 106 | 136 ± 38 | 413 ± 27 | 330 ± 25 | 509 ± 25 | – | – | – | – | – | – | – | –
COc1ccc(-c2nccn2-c2cc(OC)c(OC)c(OC)c2)cc1 [Compound 3b, reference compound] | 233 ± 52 | – | 1010 ± 104 | 5400 ± 950 | 133 ± 31 | 4770 ± 120 | 210 ± 10.2 | 230 ± 55 | – | 1710 | 210 to 5400 | – | 1600 | 1100 | – | –
COc1cc(-n2ccnc2-c2ccc(C)cc2)cc(OC)c1OC [Compound 4a, 1-(3′,4′,5′-Trimethoxyphenyl)-2-p-tolyl-1H-imidazole] | 1920 ± 354 | 142 to 144 | 4730 ± 328 | > 10000 | 760 ± 136 | 2100 ± 252 | 1260 ± 172 | 2800 ± 721 | – | – | – | – | – | – | – | –
COc1ccc(-c2nccn2-c2cc(OC)c(OC)c(OC)c2)cc1Cl [Compound 4e, 2-(3′-Chloro-4′-methoxyphenyl)-1-(3′,4′,5′-trimethoxyphenyl)-1H-imidazole] | 647 ± 83 | 176 to 178 | 2600 ± 422 | 715 ± 148 | 365 ± 25 | 453 ± 14 | 263 ± 39 | 666 ± 231 | – | – | – | – | – | – | – | –
COc1cc(-n2ccnc2-c2ccc(N(C)C)cc2)cc(OC)c1OC [Compound 3a, 1-(3′,4′,5′-trimethoxyphenyl)-2-(4′-N,N-dimethylaminophenyl)-1H-imidazole] | – | – | – | – | – | – | – | – | – | – | – | – | 80 | 270 | 35000 | –
CCc1ccc(-c2nccn2-c2cc(OC)c(OC)c(OC)c2)cc1 [Compound 4b, 2-(4′-Ethylphenyl)-1-(3′,4′,5′-trimethoxyphenyl)-1H-imidazole] | 1400 ± 200 | 130 to 132 | 7000 ± 1150 | 5680 ± 259 | 4570 ± 758 | 4800 ± 451 | 1980 ± 126 | 2090 ± 374 | – | – | – | – | – | – | – | –
COc1cc(-c2nccn2-c2cc(OC)c(OC)c(OC)c2)ccc1C [Compound 4g, 2-(4′-Methyl-3′-methoxyphenyl)-1-(3′,4′,5′-trimethoxyphenyl)-1H-imidazole] | > 10000 | – | > 10000 | 2570 ± 784 | 4930 ± 536 | > 10000 | 623 ± 98 | > 10000 | – | – | – | – | – | – | – | –
COc1ccc(-c2nccn2-c2cc(OC)c(OC)c(OC)c2)cc1OC [Compound 4i, 1-(3′,4′,5′-Trimethoxyphenyl)-2-(3′,4′-dimethoxyphenyl)-1H-imidazole] | > 10000 | – | > 10000 | > 10000 | > 10000 | 3930 ± 517 | > 10000 | > 10000 | – | – | – | – | – | – | – | –
COc1ccc(-c2nccn2-c2cc(OC)c(OC)c(OC)c2)cc1F [Compound 4d, 2-(3′-Fluoro-4′-methoxyphenyl)-1-(3′,4′,5′-trimethoxyphenyl)-1H-imidazole] | 112 ± 15 | – | 121 ± 56 | 217 ± 46 | 90 ± 23 | 29 ± 9.5 | 51 ± 6.5 | 74 ± 17 | – | – | – | – | – | – | – | –
COc1ccc(/C=C\c2cc(OC)c(OC)c(OC)c2)cc1O [CA-4, Combretastatin A-4, reference compound] | 180 ± 30 | – | […] | […] | 0.8 ± 0.2 | […] | […] | 5 ± 0.6 | […] | 523 | – | – | – | – | – | –
COc1cc(-n2ccnc2-c2ccc(SC)cc2)cc(OC)c1OC [Compound 4c, 1-(3′,4′,5′-Trimethoxyphenyl)-2-(4′-(methylthio)phenyl)-1H-imidazole] | 330 ± 36 | 158 to 160 | 5600 ± 352 | 800 ± 58 | 407 ± 24 | 333 ± 41 | 337 ± 48 | 1360 ± 350 | – | – | – | – | – | – | – | –
1-(3′,4′,5′-trimethoxyphenyl)-5-(3′-chloro-4′-ethoxyphenyl) triazole | – | – | – | – | – | – | – | – | – | – | – | – | – | – | – | 3 to 20

Now from value to compound, other results behind:

IC50 (HT-29) [nM] | melting point [°C] | IC50 (A549) [nM] | IC50 (RS4;11) [nM] | IC50 (Jurkat) [nM] | IC50 (HL-60) [nM] | IC50 (HeLa) [nM] | IC50 (MCF-7) [nM] | IC50 (bovine brain tubulin; [5]) [nM] | IC50 [1, 6] [nM] | IC50 [1, 7] [nM] | IC50 (bovine brain tubulin; [8]) [nM] | Compound | IC50 [2] [nM] | IC50 [3] [nM] | IC50 (tubulin) [nM] | IC50 [4] [nM]
7.5 ± 1.2 | 127 to 129 | 14 ± 2.3 | 8.6 ± 1.1 | 12 ± 6.6 | 3.5 ± 0.73 | 1.5 ± 0.32 | 3.4 ± 0.38 | 570 | 7.2 | 1.5 to 14.2 | – | CCOc1ccc(-c2nccn2-c2cc(OC)c(OC)c(OC)c2)cc1F [Compound 4n, 2-(3′-Fluoro-4′-ethoxyphenyl)-1-(3′,4′,5′-trimethoxyphenyl)-1H-imidazole] | – | – | – | –
> 10000 | 130 to 132 | > 10000 | > 10000 | > 10000 | > 10000 | > 10000 | > 10000 | – | – | – | – | CCOc1ccccc1-c1nccn1-c1cc(OC)c(OC)c(OC)c1 [Compound 4m, 2-(2′-Ethoxyphenyl)-1-(3′,4′,5′-trimethoxyphenyl)-1H-imidazole] | – | – | – | –
> 10000 | 121 to 122 | > 10000 | > 10000 | > 10000 | > 10000 | > 10000 | > 10000 | – | – | – | – | CCOc1cccc(-c2nccn2-c2cc(OC)c(OC)c(OC)c2)c1 [Compound 4l, 2-(3′-Ethoxyphenyl)-1-(3′,4′,5′-trimethoxyphenyl)-1H-imidazole] | – | – | – | –
1.8 ± 0.8 | 132 to 134 | 1.9 ± 1 | 34.7 | 1.2 ± 0.5 | 4.8 ± 1.9 | 3.7 ± 0.12 | 1.5 ± 0.2 | 630 | 7.1 | 1.8 to 34.7 | 630 | CCOc1ccc(-c2nccn2-c2cc(OC)c(OC)c(OC)c2)cc1 [Compound 4k, 2-(4′-Ethoxyphenyl)-1-(3′,4′,5′-trimethoxyphenyl)-1H-imidazole] | – | – | – | –
15 ± 1.3 | – | 63 ± 18.1 | 91 ± 8.9 | 42 ± 3.9 | 63 ± 17.6 | 2.9 ± 0.8 | 1.7 ± 0.6 | 1400 ± 100 | – | – | 1400 | CCCOc1ccc(-c2nccn2-c2cc(OC)c(OC)c(OC)c2)cc1 [Compound 4q, 1-(3′,4′,5′-Trimethoxyphenyl)-2-(4′-n-propoxyphenyl)-1H-imidazole] | – | – | – | –
> 10000 | 125 to 127 | > 10000 | > 10000 | 6630 ± 338 | > 10000 | > 10000 | > 10000 | – | – | – | – | COc1cc(-n2ccnc2-c2ccc(OC(F)(F)F)cc2)cc(OC)c1OC [Compound 4j, 1-(3′,4′,5′-Trimethoxyphenyl)-2-(4′-(trifluoromethoxy)phenyl)-1H-imidazole] | – | – | – | –
174 ± 16 | 143 to 145 | 228 ± 81 | 85 ± 20 | 127 ± 27 | 12 ± 2.5 | 48 ± 2.5 | 69 ± 7 | – | – | – | – | CCSc1ccc(-c2nccn2-c2cc(OC)c(OC)c(OC)c2)cc1 [Compound 4p, 2-(4′-(Ethylthio)phenyl)-1-(3′,4′,5′-trimethoxyphenyl)-1H-imidazole] | – | – | – | –
